Laboratory results reported in patent publication US20200080157A1, “PROGNOSIS AND TREATMENT OF RELAPSING LEUKEMIA” (McMaster University, priority 2018, published 2020).

Assays:
[1] = tested on: human AML leukemia initiating cells (LSCs); assay: Serial transplantation (limiting dilution) leukemia-initiating cell / LSC assay in secondary recipient mice; format: in vivo, human AML cells in NOD/SCID or NSG mice
From the text: The threshold for engraftment detection was set at ≥0.1% human chimerism.

[2] = Treatment-related mortality on AraC dose intensification in AML-xenografted mice; format: in vivo, mouse; conditions: AraC 100 mg/kg, 5 consecutive days
From the text: This more aggressive regime produced unacceptable treatment-related mortality rates of 60%, which was not balanced by any therapeutic benefit in the few mice that survived.

human AML cells = assay: Flow cytometry of CD34/CD38 and LRC marker proteins (DRD2, SLC2A2, FASLG, FUT3) in human AML cells from xenograft BM; format: in vivo, human AML cells in mice
Procedure: Immunophenotyping for human hematopoietic cell surface markers was carried out using the following antibodies: V450-conjugated anti-CD45 (1:100; 2D1), APC-conjugated anti-CD33 (1:300; WM-33), PE-conjugated anti-CD34 (1:200; 581), FITC- or PE-conjugated anti-CD38 (1:100 or 1:500; HB7), FITC-conjugated anti-CD19 (1:100; HIB19), and APC-conjugated anti-CD3 (1:100; UCHT1; all from BD). In order to evaluate candidates from the LRC gene signature at the protein level, gene targets were identified with available commercial antibodies that had been validated for flow cytometry. Directly conjugated antibodies were used to detect human SLC2A2 (Alexa fluor 488-conjugated; 1:100; 199017; Novus Biologicals) and FASLG (FITC-conjugated; 1:100; SB93A; Thermo Fisher). Additionally, mouse anti-human primary antibodies that recognize human DRD2 (1:100; B-10; Santa Cruz) or FUT3 (1:100, F3, Thermo Fisher) were used, followed by incubation with an Alexa fluor 647- or 555-conjugated donkey anti-mouse secondary antibody ([…]; Thermo Fisher). In these cases of indirect staining, cells were first blocked with donkey serum (Jackson ImmunoResearch Laboratories) plus human FC block (eBioscience). […] When appropriate, fluorescence minus one and secondary antibody controls were used to optimize gating strategies for target cell populations. […]

[3] = tested on: healthy human hematopoietic cells (CD45+); assay: Healthy human hematopoietic chimerism and growth rate in xenografted mice; conditions: healthy human grafts in mice
[4] = tested on: human AML cells (CD45+CD33+); assay: Leukemic chimerism and growth rate in BM of AML-xenografted mice (FACS, serial BM aspirates); conditions: for Leukemic chimerism levels following DRD2 antagonist therapy: mean ± SEM
human AML progenitors = assay: CFU (methylcellulose) progenitor assay of human AML cells purified from treated xenograft BM

Nc1ccn([C@@H]2O[C@H](CO)[C@@H](O)[C@@H]2O)c(=O)n1 [AraC, Cytarabine]
functional LSCs (serial LIC transplantation) ([1]; AML xenografts, 48 hr after final AraC dose): suppressed
#Engrafted mice ([1]; AML#2, +AraC, cell dose 1 × 10^6, cells transplanted 48 hr after final AraC dose): 0/4
#Engrafted mice ([1]; AML#2, +AraC, cell dose 2 × 10^5, cells transplanted 48 hr after final AraC dose): 0/4
#Engrafted mice ([1]; AML#3, +AraC, cell dose 2 × 10^5, cells transplanted 48 hr after final AraC dose): 1/4
#Engrafted mice ([1]; AML#3, +AraC, cell dose 3 × 10^4, cells transplanted 48 hr after final AraC dose): 0/3
treatment-related mortality rate [2]: 60%
frequencies of primitive CD34+ and CD34+CD38− cells within residual AML populations (human AML cells; AraC 5 consecutive days, xenograft BM 24-72 hr after final dose): strongly reduced
re-growth rates of healthy human hematopoiesis after AraC cytoreduction [3]: rates matching those of vehicle-treated controls
recipient mice with persisting residual disease ([4]; AML patient #13 xenografts, AraC alone, 9 days after final AraC dose): 50%
leukemic growth after AraC vs vehicle-treated controls ([4]; AML xenografts, kinetic modeling of serial BM aspirates): accelerated leukemic growth
functional progenitors in residual leukemic populations (CFU) (human AML progenitors; AML xenografts, 48 hr after AraC withdrawal): depleted

CSc1ccc2c(c1)N(CCC1CCCCN1C)c1ccccc1S2 (stereo not shown) [DRD2 antagonist, thioridazine]
LIC content of therapy-naïve AML ([1]; DRD2 antagonist single agent, AML #5, serial transplantation): did not impact
LIC activity of AraC-exposed LRCs ([1]; DRD2 antagonist together with AraC, AML #5, serial transplantation 9 days post-AraC): complete loss of LIC activity
disease regeneration potential (secondary LIC assays and progenitor assays) ([1]; DRD2 antagonist with AraC, three additional AML patient samples): reproducibly blocked
DRD2 protein expression in human leukemic cells from xenograft BM (human AML cells; DRD2 antagonist with AraC, LRC stage): loss of DRD2 protein expression
time to overt relapse ([4]; AML #3 xenografts, AraC plus DRD2 antagonist vs AraC alone, relapse set at 20% leukemic chimerism, estimated from growth rates): nearly doubled
Leukemic chimerism levels following DRD2 antagonist therapy ([4]; AML #5, LRCs (in combination with AraC)): 1.4 ± 0.3
Leukemic chimerism levels following DRD2 antagonist therapy ([4]; AML #5, Therapy-naive (single agent, no AraC)): 12.4 ± 2.2
Leukemic chimerism levels following DRD2 antagonist therapy ([4]; AML #10, LRCs (in combination with AraC)): 16.9 ± 8.7
Leukemic chimerism levels following DRD2 antagonist therapy ([4]; AML #11, LRCs (in combination with AraC)): 1.4 ± 1.4
leukemic growth rates after AraC ([4]; AML Patient #3 xenografts, DRD2 antagonist plus AraC vs AraC alone): successfully disrupted
recipients achieving disease-free status ([4]; AML patient #13 xenografts, DRD2 antagonist added to AraC): 100%
overall cytoreductive activity of AraC (leukemic chimerism) ([4]; in vivo delivery of DRD2 antagonist with AraC): did not improve
effect on progenitors of regenerating LRCs (CFU) (human AML progenitors; DRD2 antagonist in combination with AraC, 9 days after last AraC dose): profound effects
effect on AML progenitors arising from therapy-naive LSCs (CFU) (human AML progenitors; DRD2 antagonist single agent, 21-day regimen, AML xenografts): moderately affected
